Activity calls are given as the source filed them.
Key:
[1] = molecular target: T1, Sentrin-specific protease 8 (Homo sapiens, UniProt Q96LD8); format: functional;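 also: luminescence read-out of SENP8 inhibition, dose-response confirmation following an ultra-high-throughput screen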
T1 sequence (Q96LD8 whole entry): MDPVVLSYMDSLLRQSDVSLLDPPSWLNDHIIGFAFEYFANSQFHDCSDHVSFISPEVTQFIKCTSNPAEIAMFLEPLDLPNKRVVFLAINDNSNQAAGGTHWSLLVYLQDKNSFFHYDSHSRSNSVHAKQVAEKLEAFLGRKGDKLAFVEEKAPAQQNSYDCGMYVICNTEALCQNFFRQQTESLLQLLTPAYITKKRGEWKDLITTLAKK

[2] = molecular target: Luciferin 4-monooxygenase (Photinus pyralis, UniProt P08659); test: inhibition of purified Photinus pyralis luciferase – biochemical, luminescence, dose response (AID 1891)
[3] = DRD fibroblast viability loss – cell-based, non-viral oncogenic, luminescence, dose response (AID 1934); format: functional; settings: Homo sapiens
[4] = Luminescence Cell-Based Dose Confirmation HTS to Identify Inhibitors of Platelet Dense Granule Release. [Related pubchem assays: 1663 (Primary HTS), 1678 (Summary of Project)]; format: functional
[5] = HepG2 cell cytotoxicity, dose response, cytotoxicity control for non-replicating M. tuberculosis project (AID 489018); format: functional; settings: Mycobacterium tuberculosis
HEK293 = test: optical interference in Abeta FP readout, dose response, artefact control for IDE activator project, biochemical, fluorescence polarization (AID 588442); format: functional, cell-based; settings: Homo sapiens
[6] = molecular target: T2, Short transient receptor potential channel 4 (Mus musculus, UniProt Q9QUQ5); test: calcium entry via TRPC4 opening agents – cell-based, HEK293 TRPC4/mu-opioid, Fluo-4 calcium, dose response (AID 434937); format: functional
T2 sequence (Q9QUQ5 whole entry): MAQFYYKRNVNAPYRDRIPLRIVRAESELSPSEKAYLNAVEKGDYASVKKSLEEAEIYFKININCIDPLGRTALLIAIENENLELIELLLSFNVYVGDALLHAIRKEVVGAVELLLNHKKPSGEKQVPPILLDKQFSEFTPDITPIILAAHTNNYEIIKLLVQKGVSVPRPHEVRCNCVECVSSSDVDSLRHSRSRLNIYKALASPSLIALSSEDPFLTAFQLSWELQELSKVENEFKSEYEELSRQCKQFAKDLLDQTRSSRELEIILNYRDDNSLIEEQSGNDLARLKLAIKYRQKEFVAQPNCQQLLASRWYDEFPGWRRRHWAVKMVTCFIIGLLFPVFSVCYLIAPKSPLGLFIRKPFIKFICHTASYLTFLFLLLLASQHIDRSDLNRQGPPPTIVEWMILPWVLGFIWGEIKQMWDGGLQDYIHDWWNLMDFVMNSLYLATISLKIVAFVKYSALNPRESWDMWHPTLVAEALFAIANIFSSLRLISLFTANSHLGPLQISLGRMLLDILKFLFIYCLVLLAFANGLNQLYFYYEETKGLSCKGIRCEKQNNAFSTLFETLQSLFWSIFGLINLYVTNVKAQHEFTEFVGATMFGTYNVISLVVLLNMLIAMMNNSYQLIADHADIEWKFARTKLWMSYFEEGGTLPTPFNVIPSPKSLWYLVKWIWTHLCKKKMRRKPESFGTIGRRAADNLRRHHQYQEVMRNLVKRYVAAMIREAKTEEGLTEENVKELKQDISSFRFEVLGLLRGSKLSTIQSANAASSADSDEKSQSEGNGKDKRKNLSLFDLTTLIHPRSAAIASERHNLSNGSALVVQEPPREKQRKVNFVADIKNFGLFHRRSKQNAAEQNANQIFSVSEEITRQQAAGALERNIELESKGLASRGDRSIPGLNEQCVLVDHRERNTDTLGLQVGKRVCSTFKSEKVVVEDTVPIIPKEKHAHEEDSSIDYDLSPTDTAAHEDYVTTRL

[7] = molecular target: cAMP-dependent protein kinase catalytic subunit alpha (Homo sapiens, UniProt P17612); format: functional
[8] = molecular target: MAP kinase-activated protein kinase 5 (Homo sapiens, UniProt Q8IW41); format: functional;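 also: measured as one member of a kinome panel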
[9] = molecular target: Cyclin-dependent kinase 2 (Homo sapiens, UniProt P24941); format: functional;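 also: CDK2 measured as one member of a broad kinome profiling panel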
[10] = molecular target: Tyrosine-protein kinase JAK2 (Homo sapiens, UniProt O60674); format: functional;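 also: JAK2 tested as one member of a kinase panel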
[11] = molecular target: Glycogen synthase kinase-3 alpha (Homo sapiens, UniProt P49840); format: functional;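 also: GSK3A result taken from a broad kinome-wide kinase panel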
[12] = molecular target: Serine/threonine-protein kinase Chk1 (Homo sapiens, UniProt O14757); format: functional;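 also: measured as one member of a kinome-wide kinase profiling panel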
[13] = molecular target: Vascular endothelial growth factor receptor 3 (Homo sapiens, UniProt P35916); format: functional;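 also: value from a kinome-wide profiling panel, with FLT4 as the panel member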
[14] = molecular target: Serine/threonine-protein kinase PLK1 (Homo sapiens, UniProt P53350); format: functional;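 also: PLK1 measured as one member of a kinome-wide profiling panel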
[15] = molecular target: Interleukin-1 receptor-associated kinase 4 (Homo sapiens, UniProt Q9NWZ3); format: functional
Aurora kinase A = molecular target: T3, Aurora kinase A (Homo sapiens, UniProt O14965); format: functional;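 also: value from the Navigating the Kinome kinase panel profiling, panel entry STK6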
T3 sequence (O14965 whole entry): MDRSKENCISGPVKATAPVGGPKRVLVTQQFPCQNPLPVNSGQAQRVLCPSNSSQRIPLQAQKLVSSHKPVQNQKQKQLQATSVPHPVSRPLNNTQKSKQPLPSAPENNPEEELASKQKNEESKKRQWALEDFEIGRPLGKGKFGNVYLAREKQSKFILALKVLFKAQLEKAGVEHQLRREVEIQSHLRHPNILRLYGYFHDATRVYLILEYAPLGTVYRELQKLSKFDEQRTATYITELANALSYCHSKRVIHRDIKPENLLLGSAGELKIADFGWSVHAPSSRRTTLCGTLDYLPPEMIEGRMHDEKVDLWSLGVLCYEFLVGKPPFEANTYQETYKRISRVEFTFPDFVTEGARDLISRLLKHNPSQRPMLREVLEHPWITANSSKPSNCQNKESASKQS

[16] = molecular target: Tyrosine-protein kinase JAK3 (Homo sapiens, UniProt P52333); format: functional
[17] = molecular target: Protein kinase C delta type (Homo sapiens, UniProt Q05655); format: functional
[18] = molecular target: Cyclin-dependent kinase 5 (Homo sapiens, UniProt Q00535); format: functional;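 also: CDK5 measured as one member of a kinase profiling panel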
[19] = molecular target: 5'-AMP-activated protein kinase catalytic subunit alpha-1 (Homo sapiens, UniProt Q13131); format: functional
[20] = molecular target: Inhibitor of nuclear factor kappa-B kinase subunit alpha (Homo sapiens, UniProt O15111); format: functional
Chain of Inhibitor of nuclear factor kappa-B kinase subunit alpha (O15111 whole entry): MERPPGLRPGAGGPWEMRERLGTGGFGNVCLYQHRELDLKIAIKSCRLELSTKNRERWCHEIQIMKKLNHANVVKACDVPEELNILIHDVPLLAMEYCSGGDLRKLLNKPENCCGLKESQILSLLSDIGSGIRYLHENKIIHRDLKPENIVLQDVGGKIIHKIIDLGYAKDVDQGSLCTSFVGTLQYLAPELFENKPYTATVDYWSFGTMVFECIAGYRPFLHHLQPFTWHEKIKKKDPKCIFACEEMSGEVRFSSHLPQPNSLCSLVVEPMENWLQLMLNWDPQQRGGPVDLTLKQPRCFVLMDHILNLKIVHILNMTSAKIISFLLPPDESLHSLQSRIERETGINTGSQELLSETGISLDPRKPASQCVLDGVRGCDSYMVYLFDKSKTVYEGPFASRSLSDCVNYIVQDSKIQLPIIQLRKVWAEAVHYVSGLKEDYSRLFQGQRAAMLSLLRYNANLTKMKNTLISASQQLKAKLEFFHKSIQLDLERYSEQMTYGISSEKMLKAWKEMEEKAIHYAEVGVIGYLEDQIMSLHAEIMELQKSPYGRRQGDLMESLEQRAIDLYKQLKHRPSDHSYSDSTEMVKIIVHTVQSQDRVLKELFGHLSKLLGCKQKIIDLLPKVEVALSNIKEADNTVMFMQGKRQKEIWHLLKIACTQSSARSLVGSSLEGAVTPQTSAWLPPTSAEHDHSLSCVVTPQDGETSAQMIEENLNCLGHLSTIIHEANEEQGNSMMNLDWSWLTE

Chain of Serine/threonine-protein kinase PLK1 (P53350 whole entry): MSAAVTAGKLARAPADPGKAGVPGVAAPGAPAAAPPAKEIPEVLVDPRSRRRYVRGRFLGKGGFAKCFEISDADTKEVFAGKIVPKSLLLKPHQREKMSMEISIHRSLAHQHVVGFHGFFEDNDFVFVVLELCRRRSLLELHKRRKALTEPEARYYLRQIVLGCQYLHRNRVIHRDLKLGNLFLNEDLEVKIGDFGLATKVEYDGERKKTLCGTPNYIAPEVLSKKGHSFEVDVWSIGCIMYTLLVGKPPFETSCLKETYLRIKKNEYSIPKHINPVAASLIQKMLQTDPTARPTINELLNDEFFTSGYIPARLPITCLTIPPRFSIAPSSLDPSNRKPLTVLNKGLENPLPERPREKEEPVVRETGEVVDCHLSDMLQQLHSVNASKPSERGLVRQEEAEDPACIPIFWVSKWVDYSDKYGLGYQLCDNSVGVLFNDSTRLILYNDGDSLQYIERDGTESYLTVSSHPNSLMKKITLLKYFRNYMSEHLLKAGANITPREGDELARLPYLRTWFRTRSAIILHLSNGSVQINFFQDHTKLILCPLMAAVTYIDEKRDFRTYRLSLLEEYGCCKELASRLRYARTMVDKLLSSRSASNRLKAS
Chain of Luciferin 4-monooxygenase (P08659 whole entry): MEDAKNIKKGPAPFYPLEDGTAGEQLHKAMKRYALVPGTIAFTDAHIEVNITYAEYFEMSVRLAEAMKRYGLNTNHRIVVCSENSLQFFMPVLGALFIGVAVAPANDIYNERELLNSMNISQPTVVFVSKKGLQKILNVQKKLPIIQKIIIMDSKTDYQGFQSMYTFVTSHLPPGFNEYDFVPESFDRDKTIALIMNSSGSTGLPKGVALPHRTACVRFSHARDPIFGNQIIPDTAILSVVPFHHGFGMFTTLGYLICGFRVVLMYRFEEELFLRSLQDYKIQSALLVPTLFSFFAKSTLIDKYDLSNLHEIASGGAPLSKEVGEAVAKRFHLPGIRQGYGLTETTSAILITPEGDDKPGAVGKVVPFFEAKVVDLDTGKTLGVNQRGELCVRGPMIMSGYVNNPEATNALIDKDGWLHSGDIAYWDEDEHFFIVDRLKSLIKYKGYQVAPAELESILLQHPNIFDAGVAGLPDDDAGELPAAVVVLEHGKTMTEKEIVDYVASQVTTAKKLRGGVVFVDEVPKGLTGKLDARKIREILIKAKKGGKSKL
Chain of Interleukin-1 receptor-associated kinase 4 (Q9NWZ3 whole entry): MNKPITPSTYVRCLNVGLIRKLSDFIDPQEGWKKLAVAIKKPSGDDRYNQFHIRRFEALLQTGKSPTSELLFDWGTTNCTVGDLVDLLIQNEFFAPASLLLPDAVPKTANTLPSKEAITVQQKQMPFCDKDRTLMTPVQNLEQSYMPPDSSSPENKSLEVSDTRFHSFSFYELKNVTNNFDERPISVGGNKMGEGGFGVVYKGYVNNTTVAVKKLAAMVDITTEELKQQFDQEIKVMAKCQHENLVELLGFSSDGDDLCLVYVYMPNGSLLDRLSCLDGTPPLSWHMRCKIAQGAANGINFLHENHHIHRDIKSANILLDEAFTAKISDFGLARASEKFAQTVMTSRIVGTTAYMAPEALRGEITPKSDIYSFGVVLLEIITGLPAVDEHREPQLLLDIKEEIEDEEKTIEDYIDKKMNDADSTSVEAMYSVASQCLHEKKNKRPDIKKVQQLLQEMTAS
Chain of 5'-AMP-activated protein kinase catalytic subunit alpha-1 (Q13131 whole entry): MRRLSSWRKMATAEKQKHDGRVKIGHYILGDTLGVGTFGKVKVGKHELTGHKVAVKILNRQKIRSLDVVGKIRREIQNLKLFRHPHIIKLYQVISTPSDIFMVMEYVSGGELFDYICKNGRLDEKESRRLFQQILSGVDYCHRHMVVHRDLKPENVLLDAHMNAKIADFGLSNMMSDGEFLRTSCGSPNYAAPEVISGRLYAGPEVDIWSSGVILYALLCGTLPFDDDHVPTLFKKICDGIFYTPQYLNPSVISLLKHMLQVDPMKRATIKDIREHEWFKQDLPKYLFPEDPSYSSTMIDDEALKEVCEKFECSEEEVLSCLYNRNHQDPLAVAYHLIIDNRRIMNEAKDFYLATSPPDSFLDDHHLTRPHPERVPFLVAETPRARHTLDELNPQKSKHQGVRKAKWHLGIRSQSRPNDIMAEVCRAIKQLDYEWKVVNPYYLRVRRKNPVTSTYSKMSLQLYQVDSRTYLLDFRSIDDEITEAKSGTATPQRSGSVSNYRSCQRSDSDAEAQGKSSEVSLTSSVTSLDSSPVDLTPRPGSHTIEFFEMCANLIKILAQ
Chain of Tyrosine-protein kinase JAK3 (P52333 whole entry): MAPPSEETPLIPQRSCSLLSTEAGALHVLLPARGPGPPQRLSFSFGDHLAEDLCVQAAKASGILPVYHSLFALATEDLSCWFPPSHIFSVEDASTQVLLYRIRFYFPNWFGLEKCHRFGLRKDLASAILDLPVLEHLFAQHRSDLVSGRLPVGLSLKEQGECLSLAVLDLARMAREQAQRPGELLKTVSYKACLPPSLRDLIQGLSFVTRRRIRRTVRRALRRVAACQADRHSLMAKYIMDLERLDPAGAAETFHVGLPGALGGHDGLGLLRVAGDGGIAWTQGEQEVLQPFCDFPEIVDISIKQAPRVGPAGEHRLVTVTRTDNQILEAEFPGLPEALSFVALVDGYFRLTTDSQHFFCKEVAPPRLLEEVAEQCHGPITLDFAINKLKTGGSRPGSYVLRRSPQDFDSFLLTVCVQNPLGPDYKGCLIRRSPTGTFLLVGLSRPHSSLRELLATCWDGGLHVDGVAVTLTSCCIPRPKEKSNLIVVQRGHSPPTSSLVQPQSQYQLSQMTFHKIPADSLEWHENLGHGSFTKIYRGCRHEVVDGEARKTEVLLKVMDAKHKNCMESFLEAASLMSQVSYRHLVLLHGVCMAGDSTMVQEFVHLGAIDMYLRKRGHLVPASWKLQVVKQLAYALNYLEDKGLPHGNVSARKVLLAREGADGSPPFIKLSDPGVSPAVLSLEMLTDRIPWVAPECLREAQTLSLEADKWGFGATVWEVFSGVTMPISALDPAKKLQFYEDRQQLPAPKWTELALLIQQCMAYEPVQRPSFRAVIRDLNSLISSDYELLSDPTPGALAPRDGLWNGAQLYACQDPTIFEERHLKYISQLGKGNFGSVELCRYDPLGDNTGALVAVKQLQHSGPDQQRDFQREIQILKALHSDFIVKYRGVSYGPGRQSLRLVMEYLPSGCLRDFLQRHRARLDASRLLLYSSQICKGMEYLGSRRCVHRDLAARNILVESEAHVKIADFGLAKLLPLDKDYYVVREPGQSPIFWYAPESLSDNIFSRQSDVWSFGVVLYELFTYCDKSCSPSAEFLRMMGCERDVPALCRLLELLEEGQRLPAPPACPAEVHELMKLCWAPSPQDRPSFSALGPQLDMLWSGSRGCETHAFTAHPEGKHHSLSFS
Chain of Protein kinase C delta type (Q05655 whole entry): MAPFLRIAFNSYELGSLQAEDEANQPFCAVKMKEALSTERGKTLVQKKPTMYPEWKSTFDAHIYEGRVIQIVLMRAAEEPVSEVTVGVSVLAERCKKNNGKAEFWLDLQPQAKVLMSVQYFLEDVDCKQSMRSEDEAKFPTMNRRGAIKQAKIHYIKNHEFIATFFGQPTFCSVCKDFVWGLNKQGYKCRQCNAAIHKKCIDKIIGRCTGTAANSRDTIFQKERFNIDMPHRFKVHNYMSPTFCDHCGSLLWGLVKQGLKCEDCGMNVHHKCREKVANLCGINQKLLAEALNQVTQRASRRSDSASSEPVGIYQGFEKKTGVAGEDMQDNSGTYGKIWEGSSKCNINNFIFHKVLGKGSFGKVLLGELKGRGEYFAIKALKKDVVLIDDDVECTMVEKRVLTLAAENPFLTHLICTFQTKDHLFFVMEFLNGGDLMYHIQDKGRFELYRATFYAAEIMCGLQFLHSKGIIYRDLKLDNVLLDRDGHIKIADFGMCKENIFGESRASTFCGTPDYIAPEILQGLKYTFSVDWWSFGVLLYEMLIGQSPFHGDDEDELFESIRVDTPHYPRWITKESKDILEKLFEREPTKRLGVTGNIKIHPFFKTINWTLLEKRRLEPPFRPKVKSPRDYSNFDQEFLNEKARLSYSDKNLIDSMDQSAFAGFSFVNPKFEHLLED
Chain of Cyclin-dependent kinase 5 (Q00535 whole entry): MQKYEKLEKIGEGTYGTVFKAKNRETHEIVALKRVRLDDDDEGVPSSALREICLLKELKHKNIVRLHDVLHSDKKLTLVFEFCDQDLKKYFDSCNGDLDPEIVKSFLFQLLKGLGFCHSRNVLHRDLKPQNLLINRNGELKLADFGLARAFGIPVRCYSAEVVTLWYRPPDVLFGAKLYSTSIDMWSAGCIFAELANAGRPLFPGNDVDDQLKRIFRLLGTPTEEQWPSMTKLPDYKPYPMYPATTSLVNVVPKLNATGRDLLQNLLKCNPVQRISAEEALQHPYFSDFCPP

SMILES: Cc1ccc(C(=O)NC2(O)C(=O)c3ccccc3C2=O)cc1C
- IC50 [1]: 4.89 µM (active)

SMILES: O=[N+]([O-])c1c(Nc2ccccn2)cc(Cl)c2nonc12
- EC50 [2]: > 112 µM (not active)
- EC50 [3]: 5.44 µM (inconclusive)
- EC50 [4]: 3.55 µM (active)
- CC50 [5]: 16.7 µM (active)

SMILES: CC[C@@H](C)[C@H](CNC)NC[C@@H](Cc1cccc2ccccc12)NCCc1cccc(C(F)(F)F)c1
- EC50 (HEK293): > 54.7 µM (inactive)
- EC50 [6]: 9.44 µM (active)

SMILES: CC(C)(CO)CNc1nccc(-c2c(-c3ccc(F)cc3)nc3c(CC4CC4)nccn23)n1
- Ki [7]: > 7.94 µM (inactive)
- Ki [8]: > 1.58 µM (inactive)
- Ki [9]: > 7.94 µM (inactive)
- Ki [10]: > 1.58 µM (inactive)
- Ki [11]: > 7.94 µM (inactive)
- Ki [12]: > 7.94 µM (inactive)
- Ki [13]: > 6.31 µM (inactive)
- Ki [14]: > 7.94 µM (inactive)
- Ki [15]: > 10 µM (inactive)
- Ki (Aurora kinase A): > 3.98 µM (inactive)
- Ki [16]: > 1.58 µM (inactive)
- Ki [17]: > 7.94 µM (inactive)
- Ki [18]: > 10 µM (inactive)
- Ki [19]: > 6.31 µM (inactive)
- Ki [20]: > 3.98 µM (inactive)

Source: ChEMBL document CHEMBL1201862, “PubChem BioAssay data set” (2004)
